pIC50: −log10 of the molar value.
Experiments:
[1] = Cmax in CD-1 mouse at 25 mg/kg, po by LC-MS/MS; format: ADME, organism-based; design: route oral, dose 25 mg/kg; conditions: in vivo
[2] = Selectivity index, ratio of CC50 for human RD cells to IC50 for Enterovirus D68 infected in human RD cells; format: toxicity, cell-based; conditions: read-out: Selectivity Index
[3] = Tmax in CD-1 mouse at 5 mg/kg, iv by LC-MS/MS; format: ADME, organism-based; conditions: in vivo
RD = test: (§1) Cytotoxicity against human RD cells assessed as reduction in cell viability by Cell Titer-Glo luminescent cell viability assay; format: cell-based; conditions: rd
[4] = Tmax in CD-1 mouse at 25 mg/kg, po by LC-MS/MS; format: ADME, organism-based; conditions: in vivo
[5] = AUC ( 0 to infinity ) in CD-1 mouse at 5 mg/kg, iv by LC-MS/MS; format: ADME, organism-based; design: route intravenous, time infinity, dose 5 mg/kg; conditions: in vivo
[6] = AUC ( 0 to last) in CD-1 mouse at 5 mg/kg, iv by LC-MS/MS; format: ADME, organism-based; design: time 0 - last, route intravenous, dose 5 mg/kg; conditions: in vivo
[7] = Half life in CD-1 mouse at 25 mg/kg, po by LC-MS/MS; format: ADME, organism-based; conditions: in vivo
Enterovirus A71 = test: Antiviral activity against Enterovirus A71 infected in human RD cells assessed as inhibition of viral replication measured after 4 days by Cell Titer-Glo luminescent cell viability assay; format: functional, organism-based; conditions: Enterovirus A, 96 h
enterovirus D68 = test: Antiviral activity against Enterovirus D68 infected in human RD cells assessed as inhibition of viral replication measured after 4 days by Cell Titer-Glo luminescent cell viability assay; format: functional, organism-based; conditions: Enterovirus D, 96 h
[8] = AUC ( 0 to infinity ) in CD-1 mouse at 25 mg/kg, po by LC-MS/MS; format: ADME, organism-based; design: time infinity, route oral, dose 25 mg/kg; conditions: in vivo
[9] = Selectivity index, ratio of CC50 for human RD cells to IC50 for Enterovirus A71 infected in human RD cells; format: toxicity, cell-based; conditions: read-out: Selectivity Index
[10] = AUC ( 0 to last) in CD-1 mouse at 25 mg/kg, po by LC-MS/MS; format: ADME, organism-based; design: time 0 - last, route oral, dose 25 mg/kg; conditions: in vivo
[11] = Half life in CD-1 mouse at 5 mg/kg, iv by LC-MS/MS; format: ADME, organism-based; conditions: in vivo
[12] = Cmax in CD-1 mouse at 5 mg/kg, iv by LC-MS/MS; format: ADME, organism-based; design: route intravenous, dose 5 mg/kg; conditions: in vivo
[13] = as §1; format: cell-based; conditions: RD cells
[14] = AUCinf in CD-1 mouse assessed as parent NITD008 level at 5 mg/kg, iv by LC-MS/MS analysis; format: ADME, organism-based; design: route intravenous, time infinity, dose 5 mg/kg; conditions: in vivo
[15] = Half life in CD-1 mouse assessed as parent NITD008 level at 25 mg/kg, po by LC-MS/MS analysis; format: ADME, organism-based; conditions: in vivo
[16] = AUClast in CD-1 mouse assessed as parent NITD008 level at 5 mg/kg, iv by LC-MS/MS analysis; format: ADME, organism-based; design: route intravenous, time 0 - last, dose 5 mg/kg; conditions: in vivo
[17] = AUClast in CD-1 mouse assessed as parent NITD008 level at 25 mg/kg, po by LC-MS/MS analysis; format: ADME, organism-based; design: route oral, time 0 - last, dose 25 mg/kg; conditions: in vivo
[18] = Tmax in CD-1 mouse assessed as parent NITD008 level at 25 mg/kg, po by LC-MS/MS analysis; format: ADME, organism-based; conditions: in vivo
[19] = AUCinf in CD-1 mouse assessed as parent NITD008 level at 25 mg/kg, po by LC-MS/MS analysis; format: ADME, organism-based; design: route oral, time infinity, dose 25 mg/kg; conditions: in vivo
[20] = Cmax in CD-1 mouse assessed as parent NITD008 level at 5 mg/kg, iv by LC-MS/MS analysis; format: ADME, organism-based; design: route intravenous, dose 5 mg/kg; conditions: in vivo
[21] = Tmax in CD-1 mouse assessed as parent NITD008 level at 5 mg/kg, iv by LC-MS/MS analysis; format: ADME, organism-based; conditions: in vivo
[22] = Half life in CD-1 mouse assessed as parent NITD008 level at 5 mg/kg, iv by LC-MS/MS analysis; format: ADME, organism-based; conditions: in vivo
[23] = Cmax in CD-1 mouse assessed as parent NITD008 level at 25 mg/kg, po by LC-MS/MS analysis; format: ADME, organism-based; design: route oral, dose 25 mg/kg; conditions: in vivo

SMILES	selectivity ratio [2]	CC50 (RD) [nM]	pIC50 (Enterovirus A71)	pIC50 (enterovirus D68)	selectivity ratio [9]	CC50 [13] [nM]	also measured
C#C[C@@]1(O)[C@H](O)[C@@H](CO)O[C@H]1n1ccc2c(N)ncnc21	> 87.1	> 20000	6.26	6.64	> 36.2		Cmax [1]: 579 ng/mL; Tmax [3]: 1.98 min; Tmax [4]: 0.83 h; AUC(0-inf) [5]: 2080 ng·h/mL; AUC(0-t) [6]: 1970 ng·h/mL; half-life [7]: 5.09 h; AUC(0-inf) [8]: 2790 ng·h/mL; AUC(0-t) [10]: 2700 ng·h/mL; half-life [11]: 9.1 h; Cmax [12]: 6760 ng/mL
C#C[C@@]1(O)[C@H](O)[C@@H](COP(=O)(N[C@@H](CCSC)C(=O)OC(C)C)Oc2ccccc2)O[C@H]1n1ccc2c(N)ncnc21 (stereo not given in full)	2.92		6.10	5.51	11.3	8950	
C#C[C@@]1(O)[C@H](O)[C@@H](COP(=O)(N[C@@H](CC(C)C)C(=O)OC(C)C)Oc2ccccc2)O[C@H]1n1ccc2c(N)ncnc21 (stereo not given in full)	51.2		6.21	6.39	33.8	21000	
C#C[C@@]1(O)[C@H](O)[C@@H](COP(=O)(N[C@@H](C)C(=O)OC(C)C)Oc2ccccc2)O[C@H]1n1ccc2c(N)ncnc21 (stereo not given in full)	8.73		6.04	5.75	17.1	15500	
C#C[C@@]1(O)[C@H](O)[C@@H](COP(=O)(N[C@@H](Cc2c[nH]c3ccccc23)C(=O)OC(C)C)Oc2ccccc2)O[C@H]1n1ccc2c(N)ncnc21 (stereo not given in full)	13.4		5.92	5.99	11.4	13800	
C#C[C@@]1(O)[C@H](O)[C@@H](COP(=O)(N[C@H](CCSC)C(=O)OC(C)C)Oc2ccccc2)O[C@H]1n1ccc2c(N)ncnc21 (stereo not given in full)	0.4			4.31			
C#C[C@@]1(O)[C@H](O)[C@@H](COP(=O)(N[C@@H](C)C(=O)OCCCCCC)Oc2ccccc2)O[C@H]1n1ccc2c(N)ncnc21 (stereo not given in full)	94.5		6.89	6.44	262	34000	AUC [14]: 373 ng·h/mL; t1/2 [15]: 5.39 h; AUClast [16]: 359 ng·h/mL; AUClast [17]: 334 ng·h/mL; Tmax [18]: 0.14 h; AUC [19]: 368 ng·h/mL; Cmax [20]: 1403 ng/mL; Tmax [21]: 1.98 min; t1/2 [22]: 4.05 h; Cmax [23]: 103 ng/mL
C#C[C@@]1(O)[C@H](O)[C@@H](COP(=O)(N[C@@H](C)C(=O)OCCCCC)Oc2ccccc2)O[C@H]1n1ccc2c(N)ncnc21 (stereo not given in full)	99.9		6.52	6.28		52900	
C#C[C@@]1(O)[C@H](O)[C@@H](COP(=O)(N[C@@H](C)C(=O)OC2CCCC2)Oc2ccccc2)O[C@H]1n1ccc2c(N)ncnc21 (stereo not given in full)			6.24	6.60			
C#C[C@@]1(O)[C@H](O)[C@@H](COP(=O)(N[C@H](C(=O)OC)C(C)C)Oc2ccccc2)O[C@H]1n1ccc2c(N)ncnc21 (stereo not given in full)	> 6.61	> 100000	5.86	5.58	> 72		
C#C[C@@]1(O)[C@H](O)[C@@H](COP(=O)(N[C@H](C)C(=O)OC(C)C)Oc2ccccc2)O[C@H]1n1ccc2c(N)ncnc21 (stereo not given in full)	> 8.75	> 100000	5.20	4.87	> 15.8		
C#C[C@@]1(O)[C@H](O)[C@@H](COP(=O)(N[C@@H](C)C(=O)OCC(C)(C)C)Oc2ccccc2)O[C@H]1n1ccc2c(N)ncnc21 (stereo not given in full)	57.1		6.41	6.28	77.5	30200	AUC [14]: 833 ng·h/mL; t1/2 [15]: 4.97 h; AUClast [16]: 800 ng·h/mL; AUClast [17]: 722 ng·h/mL; Tmax [18]: 0.83 h; AUC [19]: 744 ng·h/mL; Cmax [20]: 1983 ng/mL; Tmax [21]: 1.98 min; t1/2 [22]: 3.3 h; Cmax [23]: 165 ng/mL
C#C[C@@]1(O)[C@H](O)[C@@H](COP(=O)(N[C@@H](C)C(=O)OCC)Oc2ccccc2)O[C@H]1n1ccc2c(N)ncnc21 (stereo not given in full)	27.1		6.08	5.91	40.2	33400	
C#C[C@@]1(O)[C@H](O)[C@@H](COP(=O)(N[C@H](CC(C)C)C(=O)OC(C)C)Oc2ccccc2)O[C@H]1n1ccc2c(N)ncnc21 (stereo not given in full)	3.7		6.26	4.73	125	68700	
C#C[C@@]1(O)[C@H](O)[C@@H](COP(=O)(NCC(=O)OC(C)C)Oc2ccccc2)O[C@H]1n1ccc2c(N)ncnc21 (stereo not given in full)	> 14.1	> 100000	5.18	5.10	> 15.1		
C#C[C@@]1(O)[C@H](O)[C@@H](COP(=O)(N[C@@H](C)C(=O)OCCC)Oc2ccccc2)O[C@H]1n1ccc2c(N)ncnc21 (stereo not given in full)	105		< 4.00	6.35	< 0.47	47400	
C#C[C@@]1(O)[C@H](O)[C@@H](COP(=O)(N[C@@H](C)C(=O)OC2CCCCC2)Oc2ccccc2)O[C@H]1n1ccc2c(N)ncnc21 (stereo not given in full)	131		6.72	6.77	117	22200	AUC [14]: 558 ng·h/mL; t1/2 [15]: 5.68 h; AUClast [16]: 522 ng·h/mL; AUClast [17]: 257 ng·h/mL; Tmax [18]: 0.5 h; AUC [19]: 281 ng·h/mL; Cmax [20]: 1421 ng/mL; Tmax [21]: 1.98 min; t1/2 [22]: 9.8 h; Cmax [23]: 70 ng/mL
C#C[C@@]1(O)[C@H](O)[C@@H](COP(=O)(N[C@@H](C(=O)OC)C(C)C)Oc2ccccc2)O[C@H]1n1ccc2c(N)ncnc21 (stereo not given in full)	> 8.55	> 100000	4.90	4.67	> 7.86		
C#C[C@@]1(O)[C@H](O)[C@@H](COP(=O)(N[C@@H](C)C(=O)OCCCC)Oc2ccccc2)O[C@H]1n1ccc2c(N)ncnc21 (stereo not given in full)	> 556	> 200000	6.24	6.44	> 345		
C#C[C@@]1(O)[C@H](O)[C@@H](COP(=O)(N[C@@H](C)C(=O)OC(CC)CC)Oc2ccccc2)O[C@H]1n1ccc2c(N)ncnc21 (stereo not given in full)	> 171	> 200000	5.84	5.93	> 139		
C#C[C@@]1(O)[C@H](O)[C@@H](COP(=O)(N[C@H](Cc2ccccc2)C(=O)OC(C)C)Oc2ccccc2)O[C@H]1n1ccc2c(N)ncnc21 (stereo not given in full)	2.22		5.09	5.22	1.66	13500	
C#C[C@@]1(O)[C@H](O)[C@@H](COP(=O)(N[C@@H](Cc2ccccc2)C(=O)OC(C)C)Oc2ccccc2)O[C@H]1n1ccc2c(N)ncnc21 (stereo not given in full)	5.52		6.74	4.90	385	69200	
C#C[C@@]1(O)[C@H](O)[C@@H](COP(=O)(N[C@@H](C)C(=O)OCC(C)C)Oc2ccccc2)O[C@H]1n1ccc2c(N)ncnc21 (stereo not given in full)	169			6.62			
C#C[C@@]1(O)[C@H](O)[C@@H](COP(=O)(N[C@@H](C)C(=O)OC)Oc2ccccc2)O[C@H]1n1ccc2c(N)ncnc21 (stereo not given in full)	> 59.9	> 100000	5.94	5.78	> 86.2		
C#C[C@@]1(O)[C@H](O)[C@@H](COP(=O)(N[C@H](Cc2c[nH]c3ccccc23)C(=O)OC(C)C)Oc2ccccc2)O[C@H]1n1ccc2c(N)ncnc21 (stereo not given in full)	5.38		5.79	5.11	25.9	42000	

Reference: ChEMBL document CHEMBL5034026, “Design, synthesis and evaluation of 2'-acetylene-7-deaza-adenosine phosphoamidate derivatives as anti-EV71 and anti-EV-D68 agents” (Eur J Med Chem, 2021)
